Publication PMC10531311, “Anti-Inflammatory Activities of 8-Benzylaminoxanthines Showing High Adenosine A2A and Dual A1/A2A Receptor Affinity” (International Journal of Molecular Sciences, 2023)
Marks after values point to notes of the source that are not given here.

What was measured:
CYP3A4 = biological target: T1, CYP3A4 (Homo sapiens, UniProt P08684); assay: Drug-drug interactions, CYP3A4 P450-Glo; assay type: in vitro ADME; conditions: 10 µM
T1 construct: purchased Promega (Madison, WI, USA)
T1 sequence (P08684 whole entry): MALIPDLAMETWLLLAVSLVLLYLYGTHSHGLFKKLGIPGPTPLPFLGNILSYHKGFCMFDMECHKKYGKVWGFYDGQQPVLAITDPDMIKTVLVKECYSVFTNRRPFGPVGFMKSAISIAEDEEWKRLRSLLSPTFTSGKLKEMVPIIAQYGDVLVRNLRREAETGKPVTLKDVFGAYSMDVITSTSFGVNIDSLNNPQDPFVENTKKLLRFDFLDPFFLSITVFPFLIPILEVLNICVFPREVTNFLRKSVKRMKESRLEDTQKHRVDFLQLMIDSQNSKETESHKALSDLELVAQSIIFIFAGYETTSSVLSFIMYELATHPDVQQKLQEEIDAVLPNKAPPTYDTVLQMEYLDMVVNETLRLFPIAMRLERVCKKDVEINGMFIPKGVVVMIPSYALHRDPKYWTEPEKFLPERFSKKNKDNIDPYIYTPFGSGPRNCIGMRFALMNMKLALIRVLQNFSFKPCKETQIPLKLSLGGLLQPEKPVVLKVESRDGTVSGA
Procedure: To predict potential drug-drug interactions (DDI) effects on three of the most relevant cytochrome P450 (CYP), isoforms CYP3A4, CYP2D6 and CYP2C9 were investigated at a concentration of 10 µM. The results were compared with the effects of 1 µM of the selective inhibitors ketoconazole (CYP3A4), quinidine (CYP2D6) and sulfaphenazole (CYP2C9).
The influence of the tested compounds on recombinant human cytochromes was determined with the use of CYP3A4, CYP2D6 and CYP2C9 P450-Glo™ kits and protocols provided by Promega (Madison, WI, USA). Compounds were tested at a concentration of 10 μM. Reference inhibitors: Ketoconazole (CYP3A4), quinidine (CYP2D6) and sulfaphenazole (CYP2C9) were tested at 1 μM. The luminescent signals were measured using a microplate reader EnSpire PerkinElmer (Waltham, MA, USA).

[1] = test system: carrageenan-induced paw edema in rats; assay: Carrageenan-induced paw edema test; assay type: in vivo, Wistar rats; conditions: 20 mg/kg ip; for Change in Edema Volume 1 h / inhibition of edema, first hour: 1 h; for Change in Edema Volume 2 h / inhibition of edema, second hour: 2 h; for Change in Edema Volume 3 h / inhibition of edema, third hour: 3 h
Procedure: The carrageenan test is used to evaluate the anti-inflammatory effect, as the injection of this compound into the hind paw of an animal induces long-lasting edema. The aim of the present study was to evaluate the anti-inflammatory (antiedematous) activity of the compounds tested: 19, 22 and 24. The compounds were administered at a dose of 20 mg/kg of body weight (bw).
The in vivo experiments were carried out on male albino Swiss mice weighing 18–26 g and male Wistar rats weighing 150–180 g. The animals were housed in constant temperature facilities exposed to a 12:12 light-dark cycle and maintained on a standard pellet diet and tap water given ad libitum. The control and experimental groups consisted of 6–8 animals each. The investigated compounds were intraperitoneally (ip) administered in the form of a suspension in 0.5% methylcellulose. Control animals received the equivalent volume of solvent. All procedures were conducted according to the guidelines of ICLAS (International Council on Laboratory Animals Science) and were approved by the Local Ethics Committee of the Jagiellonian University in Kraków.
Rats were divided into four groups, one of them being the control. In order to produce inflammation, 0.1 mL of 1% carrageenan solution in water was injected into the hind paw subplantar tissue of rats, according to the modified method of C. A. Winter and P. Lence. […] Prior to the administration of test substances, paw diameters were measured by dividers and recorded. The investigated compounds were administered at a dose of 20 mg/kg, ip (as a suspension in methylcellulose), prior to carrageenan injection. […] After these administrations, paw diameters were measured at 1, 2 and 3 h. The edema % and edema inhibition % were calculated according to the formulas given below. Edema% = (N′ × 100)/N Edema inhibition% = (N – N′ × 100)/N
N: Paw diameters measured 1, 2 and 3 h after injection of carrageenan to the control group—paw diameters at the beginning.
N′: Paw diameters measured 1, 2 and 3 h after injection of carrageenan to the test groups—paw diameters at the beginning.

formalin test in mice = assay: Formalin test; assay type: in vivo, albino Swiss mice
Procedure: Injection of formalin into the dorsal surface of the hind paw of a mouse produces a biphasic nocifensive behavioral response; i.e., licking, biting, flinching or lifting of the injected paw. The acute (neurogenic) nociceptive phase lasts for the first 5 min and is followed by a period of little activity for the next 10 min. The first phase of the test is directly associated with nociceptor stimulation and the development of neurogenic inflammation. The second (late) phase occurs between 15 and 30 min after formalin injection. The second phase depends on peripheral inflammation and the central sensitization of pain. Since this phase reflects the activation of inflammatory processes, the compounds active in this phase of the experiment also have an anti-inflammatory effect. The tested compounds 19, 22 and 24, were investigated in three doses: 10, 20 and 40 mg/kg bw. ASA (acetylsalicylic acid) was used as a reference compound and administered in doses of 50, 100 and 200 mg/kg. […] The strongest effect in this assay was produced by 24. […] In addition, this anti-nociceptive and anti-inflammatory effect was approximately 13.8 times greater than that observed for the reference compound (ASA). […] ASA also attenuated statistically significant pain responses in the late phases of the formalin test. […] The in vivo experiments were carried out on male albino Swiss mice weighing 18–26 g and male Wistar rats weighing 150–180 g. The animals were housed in constant temperature facilities exposed to a 12:12 light-dark cycle and maintained on a standard pellet diet and tap water given ad libitum. The control and experimental groups consisted of 6–8 animals each. The investigated compounds were intraperitoneally (ip) administered in the form of a suspension in 0.5% methylcellulose. Control animals received the equivalent volume of solvent. All procedures were conducted according to the guidelines of ICLAS (International Council on Laboratory Animals Science) and were approved by the Local Ethics Committee of the Jagiellonian University in Kraków. The mice were pretreated with the test compound or the vehicle and were allowed to acclimate in Plexiglas observation chambers (20 × 30 × 15 cm) for 30 min before the test. Then, 20 μL of a 5% formalin solution was intraplantarly injected into the right hind paw using a 26-gauge needle. Immediately after formalin injection, the animals were individually placed into glass beakers and were observed during the next 30 min. Time (in seconds) spent on licking or biting the injected paw in selected intervals, 0–5, 15–20, 20–25 and 25–30 min, was measured in each experimental group and was an indicator of nociceptive behavior [41]. The ED50 values and their confidence limits were estimated by the method of Litchfield and Wilcoxon.

| SMILES | CYP3A4 activity, % of the control activity (CYP3A4) | Change in Edema Volume 1 h [1] | inhibition of edema, first hour [1] [%] | Change in Edema Volume 2 h [1] | inhibition of edema, second hour [1] [%] | Change in Edema Volume 3 h [1] | inhibition of edema, third hour [1] [%] | Early Phase Inhibition (%) (formalin test in mice; mice, 10 mg/kg ip) | Late Phase Inhibition (%) (formalin test in mice; mice, 10 mg/kg ip) | Licking of the Hind Paw Early Phase (0–5 min) Mean ± SEM (formalin test in mice; mice, 10 mg/kg ip) [s] | Licking of the Hind Paw Late Phase (15–30 min) Mean ± SEM (formalin test in mice; mice, 10 mg/kg ip) | Early Phase Inhibition (%) (formalin test in mice; mice, 20 mg/kg ip) | Late Phase Inhibition (%) (formalin test in mice; mice, 20 mg/kg ip) | Licking of the Hind Paw Early Phase (0–5 min) Mean ± SEM (formalin test in mice; mice, 20 mg/kg ip) [s] | Licking of the Hind Paw Late Phase (15–30 min) Mean ± SEM (formalin test in mice; mice, 20 mg/kg ip) | Early Phase Inhibition (%) (formalin test in mice; mice, 40 mg/kg ip) | Late Phase Inhibition (%) (formalin test in mice; mice, 40 mg/kg ip) | Licking of the Hind Paw Early Phase (0–5 min) Mean ± SEM (formalin test in mice; mice, 40 mg/kg ip) [s] | Licking of the Hind Paw Late Phase (15–30 min) Mean ± SEM (formalin test in mice; mice, 40 mg/kg ip) | other results |
| --- | --- | --- | --- | --- | --- | --- | --- | --- | --- | --- | --- | --- | --- | --- | --- | --- | --- | --- | --- | --- |
| C#CCn1c(=O)c2c(nc(NCc3cccc(Br)c3)n2C)n(C)c1=O [compound 24, 8-((3-Bromobenzyl)amino)-3,7-dimethyl-1-(prop-2-yn-1-yl)-3,7-dihydro-1H-purine-2,6-dione] | ~ 20% | 0.38 ± 0.02 ^a mL | 51.2 | 0.63 ± 0.14 ^a mL | 43.8 | 0.69 ± 0.01 ^b mL | 48.1 | 0 | 48.7 | 43.2 ± 6.6 | 61.2 ± 6.4 ^b sec | 24.5 | 82.9 | 31.4 ± 5.0 | 20.4 ± 10.6 ^d sec | 26.0 | 89.7 | 30.8 ± 6.7 | 12.2 ± 3.3 ^d sec | ED50 (formalin test in mice; Mus musculus, mice, II (late) phase, method of Litchfield and Wilcoxon, read-out: calculated ED50 in the formalin test): 9.1 mg/kg; effect, times greater than that of the reference compound (ASA) (formalin test in mice; formalin test, from ED50): approximately 13.8 times |
| C#CCn1c(=O)c2c(nc(NCc3ccccc3Cl)n2C)n(C)c1=O [compound 19, 8-((2-Chlorobenzyl)amino)-3,7-dimethyl-1-(prop-2-yn-1-yl)-3,7-dihydro-1H-purine-2,6-dione] | ~ 20% | 0.56 ± 0.13 mL | 28.2 | 0.72 ± 0.09 mL | 35.7 | 1.10 ± 0.21 mL | 17.3 |  | 26.0 | 41.8 ± 5.5 | 88.4 ± 5.6 s | 0 | 35.7 | 48.2 ± 10.0 | 76.8 ± 26.4 s | 0 | 47.2 | 42.6 ± 2.8 | 63.0 ± 6.6 ^b sec |  |
| C#CCn1c(=O)c2c(nc(NCc3c(F)cccc3Cl)n2C)n(C)c1=O [compound 22, 8-((2-Chloro-6-fluorobenzyl)amino)-3,7-dimethyl-1-(prop-2-yn-1-yl)-3,7-dihydro-1H-purine-2,6-dione] | around 75% | 0.49 ± 0.08 mL | 37.1 | 0.91 ± 0.05 mL | 18.7 | 0.92 ± 0.06 mL | 30.8 | 0 | 22.8 | 41.6 ± 5.4 | 92.2 ± 6.5 s |  |  | 41.0 ± 8.6 | 78.2 ± 20.3 s | 5.8 | 48.0 | 39.2 ± 1.3 | 62.0 ± 5.2 ^b sec |  |
